Pest or weed control, inhibition of growth and melting point data for 9 compounds are collected here from patent US20190292174A1, “MICROBIOCIDAL OXADIAZOLE DERIVATIVES” (SYNGENTA PARTICIPATIONS AG, priority 2016, published 2019).

As a reminder, the inhibition of growth is the change of the read-out against control, counted positive when it falls. For orientation: melting point means the temperature of the solid-liquid transition.

In series [1] the test system is Phakopsora pachyrhizi. Description: Phakopsora pachyrhizi / soybean / leaf disc preventative (Asian soybean rust). The series is classed as in vivo. The conditions noted are these: foliar, soybean leaf disks, compared to untreated control. As to the method:
Leaf disks or leaf segments of various plant species are cut from plants grown in a greenhouse. The cut leaf disks or segments are placed in multiwell plates (24-well format) onto water agar. The leaf disks are sprayed with a test solution before (preventative) or after (curative) inoculation. Compounds to be tested are prepared as DMSO solutions (max. 10 mg/ml) which are diluted to the appropriate concentration with 0.025% Tween20 just before spraying. The inoculated leaf disks or segments are incubated under defined conditions (temperature, relative humidity, light, etc.) according to the respective test system. A single evaluation of disease level is carried out 3 to 14 days after inoculation, depending on the pathosystem. Percent disease control relative to the untreated check leaf disks or segments is then calculated. Soybean leaf disks are placed on water agar in multiwell plates (24-well format) and sprayed with the formulated test compound diluted in water. One day after application leaf discs are inoculated by spraying a spore suspension on the lower leaf surface. After an incubation period in a climate cabinet of 24-36 hours in darkness at 20° C., and 75% rh leaf disc are kept at 20° C. with 12 h light/day and 75% rh. The activity of a compound is assessed as percent disease control compared to untreated when an appropriate level of disease damage appears in untreated check leaf disks (12-14 days after application).

Series [2] relates to Puccinia recondita f. sp. tritici. Description: Puccinia recondita f. sp. tritici / wheat / leaf disc preventative (brown rust). The series is classed as in vivo. The conditions noted are these: foliar, wheat leaf segments cv. Kanzler, preventative (inoculated 1 day after application), compared to untreated control. The protocol:
Leaf disks or leaf segments of various plant species are cut from plants grown in a greenhouse. The cut leaf disks or segments are placed in multiwell plates (24-well format) onto water agar. The leaf disks are sprayed with a test solution before (preventative) or after (curative) inoculation. Compounds to be tested are prepared as DMSO solutions (max. 10 mg/ml) which are diluted to the appropriate concentration with 0.025% Tween20 just before spraying. The inoculated leaf disks or segments are incubated under defined conditions (temperature, relative humidity, light, etc.) according to the respective test system. A single evaluation of disease level is carried out 3 to 14 days after inoculation, depending on the pathosystem. Percent disease control relative to the untreated check leaf disks or segments is then calculated. Wheat leaf segments cv. Kanzler are placed on agar in multiwell plates (24-well format) and sprayed with the formulated test compound diluted in water. The leaf disks are inoculated with a spore suspension of the fungus 1 day after application. The inoculated leaf segments are incubated at 19° C. and 75% rh under a light regime of 12 h light/12 h darkness in a climate cabinet and the activity of a compound is assessed as percent disease control compared to untreated when an appropriate level of disease damage appears in untreated check leaf segments (7-9 days after application).

The subject of series [3] is Glomerella lagenarium (Colletotrichum lagenarium). The series is described as follows: Glomerella lagenarium (Colletotrichum lagenarium) liquid culture / cucumber / preventative (anthracnose). The conditions noted are these: Colletotrichum orbiculare, liquid culture (PDB), growth inhibition measured photometrically 3-4 days after application, compared to untreated control. In kind it is cell-based. The protocol: […] fragments or conidia suspensions of a fungus prepared either freshly from liquid cultures of the fungus or from cryogenic storage, are directly mixed into nutrient broth. DMSO solutions of the test compound (max. 10 mg/ml) are diluted with 0.025% Tween20 by a factor of 50 and 10 μl of this solution is pipetted into a microtiter plate (96-well format). The nutrient broth containing the fungal spores/mycelia fragments is then added to give an end concentration of the tested compound. The test plates are incubated in the dark at 24° C., and 96% relative humidity. The inhibition of fungal growth is determined photometrically after 2 to 7 days, depending on the pathosystem, and percent antifungal activity relative to the untreated check is calculated. Conidia of the fungus from cryogenic storage are directly mixed into nutrient broth (PDB potato dextrose broth). Alter placing a (DMSO) solution of test compound into a microtiter plate (96-well format), the nutrient broth containing the fungal spores is added. The test plates are incubated at 24° C., and the inhibition of growth is measured photometrically 3-4 days after application.

In series [4] the test system is Puccinia recondita f. sp. tritici. The series is described as follows: Puccinia recondita f. sp. tritici / wheat / leaf disc curative (brown rust). In kind it is in vivo. The conditions noted are these: foliar, 24 h, wheat leaf segments cv. Kanzler, curative (applied 1 day after inoculation), compared to untreated control, read-out: control of Puccinia recondita f. sp. tritic. The protocol:
Leaf disks or leaf segments of various plant species are cut from plants grown in a greenhouse. The cut leaf disks or segments are placed in multiwell plates (24-well format) onto water agar. The leaf disks are sprayed with a test solution before (preventative) or after (curative) inoculation. Compounds to be tested are prepared as DMSO solutions (max. 10 mg/ml) which are diluted to the appropriate concentration with 0.025% Tween20 just before spraying. The inoculated leaf disks or segments are incubated under defined conditions (temperature, relative humidity, light, etc.) according to the respective test system. A single evaluation of disease level is carried out 3 to 14 days after inoculation, depending on the pathosystem. Percent disease control relative to the untreated check leaf disks or segments is then calculated. Wheat leaf segments cv. Kanzler are placed on agar in multiwell plates (24-well format). The leaf segments are inoculated with a spore suspension of the fungus. Plates are stored in darkness at 19° C., and 75% rh. The formulated test compound diluted in water is applied 1 day after inoculation. The leaf segments are incubated at 19° C., and 75% rh under a light regime of 12 h light/12 h darkness in a climate cabinet and the activity of a compound is assessed as percent disease control compared to untreated when an appropriate level of disease damage appears in untreated check leaf segments (6-8 days after application).

Values joined by “and” are separate entries in the source; they are usually repeats but may differ in a detail not shown here. Equal values may be shown once.

As to `CN(C)N(CC(=O)NC(C)(C)C)C(=O)c1ccc(-c2noc(C(F)(F)F)n2)cc1` [Compound 1.1, N-tert-butyl-2-[dimethylamino-[4-[5-(trifluoromethyl)-1,2,4-oxadiazol-3-yl]benzoyl]amino]-acetamide], the pest or weed control at 200 ppm in series [1], in series [2] and in series [4] was not below 80% throughout. For the same compound, the inhibition of growth at 20 ppm in series [3] was not below 80%.

With `O=C(NN1CCOC1=O)c1ccc(-c2noc(C(F)(F)F)n2)cc1F` [Compound 1.3, 2-fluoro-N-(2-oxooxazolidin-3-yl)-4-[5-(trifluoromethyl)-1,2,4-oxadiazol-3-yl]benzamide], the melting point was 186 to 189 °C and 186.8 to 188.8 °C. Besides, in series [1], the pest or weed control at 200 ppm is not below 80%. Besides, the pest or weed control at 200 ppm in series [2] was not below 80%. This compound also yielded an inhibition of growth at 20 ppm in series [3] not below 80%. In addition, in series [4], the pest or weed control at 200 ppm was not below 80%.

`O=C(Cc1ccc(-c2noc(C(F)(F)F)n2)cc1)NN1CCCCC1=O` [Compound 1.14, N-(2-oxo-1-piperidyl)-2-[4-[5-(trifluoromethyl)-1,2,4-oxadiazol-3-yl]phenyl]acetamide] showed a melting point of 165 to 170 °C. This compound also came in with a pest or weed control at 200 ppm in series [1] not below 80%. The pest or weed control at 200 ppm in series [2] is not below 80%. Also, the pest or weed control at 200 ppm in series [4] was not below 80%.

Turning to `O=C(NN1CCOCC1)c1ccc(-c2noc(C(F)(F)F)n2)cc1F` [Compound 1.15, 2-fluoro-N-morpholino-4-[5-(trifluoromethyl)-1,2,4-oxadiazol-3-yl]benzamide], the melting point was 140 to 160 °C. In addition, the pest or weed control at 200 ppm in series [1] is not below 80%. Further, the pest or weed control at 200 ppm in series [2] was not below 80%. The compound also returned an inhibition of growth at 20 ppm in series [3] not below 80%. Further, the pest or weed control at 200 ppm in series [4] is not below 80%.

In turn, `O=C(Cc1ccc(-c2noc(C(F)(F)F)n2)cc1)NN1CCOCC1` [Compound 1.17, N-morpholino-2-[4-[5-(trifluoromethyl)-1,2,4-oxadiazol-3-yl]phenyl]acetamide] yielded a melting point of 182 to 188 °C. For the same compound, in series [1], the pest or weed control at 200 ppm is not below 80%. Moreover, in series [2], the pest or weed control at 200 ppm was not below 80%. Further, the pest or weed control at 200 ppm in series [4] was not below 80%.

`O=C(NN1CCOC1=O)c1ccc(-c2noc(C(F)(F)F)n2)cc1` [Compound 1.19, N-(2-oxooxazolidin-3-yl)-4-[5-(trifluoromethyl)-1,2,4-oxadiazol-3-yl]benzamide]: the melting point is 196 to 200 °C. Further, the pest or weed control at 200 ppm in series [1] was not below 80%. Besides, the pest or weed control at 200 ppm in series [2] is not below 80%. In addition, the inhibition of growth at 20 ppm in series [3] was not below 80%. Further, the pest or weed control at 200 ppm in series [4] was not below 80%.

On to `CC(C)OCC1CN(NC(=O)c2ccc(-c3noc(C(F)(F)F)n3)cc2)C(=O)O1` (stereo not drawn) [Compound 1.20, N-[5-(isopropoxymethyl)-2-oxo-oxazolidin-3-yl]-4-[5-(trifluoromethyl)-1,2,4-oxadiazol-3-yl]benzamide], for which the melting point lay within 192 to 197 °C. In series [1], the pest or weed control at 200 ppm is not below 80%. This compound also showed an inhibition of growth at 20 ppm in series [3] not below 80%.

Turning to `O=C(Cc1ccc(-c2noc(C(F)(F)F)n2)cc1)NN1CCOC1=O` [Compound 1.21, N-(2-oxooxazolidin-3-yl)-2-[4-[5-(trifluoromethyl)-1,2,4-oxadiazol-3-yl]phenyl]acetamide], the melting point is 184 to 187 °C. This compound also came in with a pest or weed control at 200 ppm in series [1] not below 80%. The pest or weed control at 200 ppm in series [2] is not below 80%. Also, the inhibition of growth at 20 ppm in series [3] is not below 80%. In addition, the pest or weed control at 200 ppm in series [4] was not below 80%.

For the compound `O=C(NNCCOC(F)F)c1ccc(-c2noc(C(F)(F)F)n2)cc1` [Compound 1.22, N′-[2-(difluoromethoxy)ethyl]-4-[5-(trifluoromethyl)-1,2,4-oxadiazol-3-yl]benzohydrazide], the pest or weed control at 200 ppm in series [1], in series [2] and in series [4] was not below 80% throughout. The compound further gave an inhibition of growth at 20 ppm in series [3] not below 80%.
